These results are taken from patent US6410578B1, “Benzazole compounds and their use” (Novartis Animal Health US, Inc., priority 1998, dated 2002).

Molecules are shown by their SMILES.

The subject of assay [1] is Boophilus microplus Biarra (larvae). Briefly: Arena test for vermin-repellent substances, Example A. Conditions: in vitro arena test, ca. 60 to 100 larvae per well; for duration of repellent/deterrent action compared with DEET: DEET as standard; for repellent/deterrent action: evaluation of video images. How it is done:
(§1) This method is carried out in titre plates having 6 wells with a cross-section of 5 cm each, using a computer-supported video system. Each well of the titre plate is lined with a circular filter paper or another suitable carrier material. The substance of formula I to be tested is dissolved in methanol, acetonitrile or another suitable solvent, with ultrasound treatment and heating being employed for poorly-soluble substances. In an amount of 1 to 100 mg/cm^2, the dissolved test substance is placed in the centre of the filter paper on a quadrant or circular area of ca. 2.4 cm^2 radius. 4 of the 6 wells are filled with different test substances or with the same test substance in different dilutions (e.g. 1, 3.2, 5, 10 and 20 mg/cm^2). The 5th well is treated with DEET (N,N-diethyl-m-toluamide) as standard substance. The 6th well is filled with the pure solvent and serves as a control. 60 to 100 larvae or 25 to 50 nymphs or 10 to 25 adults of the parasite to be tested, e.g. ticks, are added to each filter paper, and the system is covered with a pane of glass and positioned under a video camera.
(§2) At intervals of 5 seconds, the video camera takes individual pictures of all 6 wells. For a qualitative evaluation, these images are observed in a time-lapse as a continuous film, optically following the movements of the parasites on the filter paper and comparing them with the movements in the control well no. 6 or with the standard in the 5th well. A qualitative observation is thus made as to whether the test parasites move evenly over the whole surface of the filter paper and ignore the test substance, or whether and over what period they avoid the treated zone, and what influence the dilution of the test substance has on the behaviour of the test parasites. In this way, neutral and repellent substances are determined. At the same time, the duration of activity of the test substance is determined and compared with that of the standard. By plotting all the images for each individual well over one another, different areas of density are obtained. This represents the frequency at which the parasites visit certain places. This frequency is evaluated statistically and thus quantitatively by the Willcoxon method in a comparison with the control and with the standard.
In vitro Test; Test Animal: Boophilus microplus Biarra (Larvae)
The test is carried out as described above, with ca. 60 to 100 larvae being added per well.

Assay [2] concerns Amblyomma hebraeum or variegatum (nymphs). Briefly: Arena test for vermin-repellent substances, Example B. The following applies: in vitro arena test, ca. 25 nymphs per well; for duration of repellent/deterrent action compared with DEET: DEET as standard; for repellent/deterrent action: evaluation of video images. How it is done: as §1, §2
In vitro Test; Test Animal: Amblyomma hebraeum or variegatum (Nymphs)
The test is carried out as described above, with ca. 25 nymphs being added per well.

The test system of assay [3] is Rhipicephalus sanguineus (nymphs). Briefly: Arena test for vermin-repellent substances, Example C. The following applies: in vitro arena test, ca. 40 to 50 nymphs; for duration of repellent/deterrent action compared with DEET: DEET as standard; for repellent/deterrent action: evaluation of video images. How it is done: as §1, §2
In vitro Test; Test Animal: Rhipicephalus sanguineus (Nymphs)
The test is carried out analogously to example B, with ca. 40 to 50 nymphs.

For the compound `COc1cc2nc(C)sc2cc1OC` [5,6-dimethoxy-2-methylbenzothiazole], the “duration of repellent/deterrent action compared with DEET” value in assay [1], in assay [2] and in assay [3] was “lasts considerably longer than that of DEET” in each case. The repellent/deterrent action result in assay [1], in assay [2] and in assay [3] was “almost complete repellent/deterrent action” in each case.
For `Cc1nc2cc(N)ccc2s1` [5-amino-2-methylbenzothiazole], the “duration of repellent/deterrent action compared with DEET” value in assay [1], in assay [2] and in assay [3] was “lasts considerably longer than that of DEET” in each case. Besides, the repellent/deterrent action result in assay [1], in assay [2] and in assay [3] was “almost complete repellent/deterrent action” throughout.
